Earlier results in patent EP4578905A1, “COMPOSITION, PREPARATION METHOD THEREFOR, AND USE THEREOF” (Bloomage Biotechnology Corporation Limited, priority 2022, dated 2024).
Like-named read-outs stand apart in the source and are kept apart here.

## NCCCC(=O)O [γ-aminobutyric acid]
First pK printed
  dissociation constant pK: 4.03
Second pK printed
  dissociation constant pK: 10.56
